# Reference: EPA's ToxValDB 9.5 (doi:10.2903/j.efsa.2020.5986)
# Assays:
# [1] = test system: Apis mellifera; settings: acute, mortality
# [2] = test system: Colinus virginianus; settings: oral
# [3] = test system: Danio rerio; settings: subchronic; duration: 30 days; growth
# [4] = test system: Daphnia magna; settings: chronic/long-term; duration: 21 days; reproduction
# [5] = test system: Hypoaspis aculeifer; settings: acute; duration: 14 days; mortality
# [6] = test system: Oncorhynchus mykiss; settings: acute; duration: 96 hours; mortality
# [7] = test system: Rattus norvegicus; settings: acute; oral; mortality
# [8] = test system: Tagia sp.; settings: chronic/long-term; mortality
structure (smiles),measurement,setting,value
CC(C)=CCC/C(C)=C/CC/C(C)=C/CO [Farnesol],LD50,[1]; dermal,> 100 µg/piece
same,LD50,"[1]; oral, unspecified",> 100 µg/piece
same,LD50,"[2]; acute, mortality",> 2000 mg/kg-day
same,NOEC,"[2]; reproduction developmental, diet",≥ 111 mg/kg-day
same,NOEC,[3],≥ 0.138 mg/L
same,NOEC,[4],3 mg/L
same,NOEC,[5],1000 mg/kg
same,LC50,[6],> 0.134 µg/mL
same,LC50,[7],> 2000 mg/kg-day
same,NOEC,[8],≥ 1000 mg/kg
